Experimental data taken from article PMC4851326, “Pharmacologic Comparison of Clinical Neutral Endopeptidase Inhibitors in a Rat Model of Acute Secretory Diarrhea” (The Journal of Pharmacology and Experimental Therapeutics, 2016).

How the values were obtained:
Details in all cases: recombinant purified human enzyme; for prodrugs the active form was tested
aminopeptidase N = biological target: T1, aminopeptidase N (Homo sapiens, UniProt P15144); assay: Purified peptidase assay, APN; type: biochemical
T1 construct: purchased R&D Systems (Minneapolis, MN)
Method: (§1) Purified recombinant human enzymes were purchased from R&D Systems (Minneapolis, MN). […] Each substrate was diluted to 100 μM in the assay buffer recommended for each enzyme by the supplier. […] To these, 5 μl of diluted enzyme was added, followed by 10 μl of the quenched peptide substrate. The plates were incubated at 37°C until at least 10% substrate turnover or 5 μM product had formed. Fluorescence was measured using a Tecan Safire II (Excitation 320 nm/Emission 420 nm). Each plate included a standard curve of reaction product and positive (no enzyme) and negative (dimethyl sulfoxide vehicle) controls. Dose-response data were plotted and inhibition values (IC50) determined by linear regression analysis using GraphPad Prism (GraphPad Software, La Jolla, CA).

ECE-1 = biological target: T2, ECE-1 (Homo sapiens, UniProt P42892); assay: biochemical
T2 construct: purchased R&D Systems (Minneapolis, MN)
T2 sequence (P42892 1-770): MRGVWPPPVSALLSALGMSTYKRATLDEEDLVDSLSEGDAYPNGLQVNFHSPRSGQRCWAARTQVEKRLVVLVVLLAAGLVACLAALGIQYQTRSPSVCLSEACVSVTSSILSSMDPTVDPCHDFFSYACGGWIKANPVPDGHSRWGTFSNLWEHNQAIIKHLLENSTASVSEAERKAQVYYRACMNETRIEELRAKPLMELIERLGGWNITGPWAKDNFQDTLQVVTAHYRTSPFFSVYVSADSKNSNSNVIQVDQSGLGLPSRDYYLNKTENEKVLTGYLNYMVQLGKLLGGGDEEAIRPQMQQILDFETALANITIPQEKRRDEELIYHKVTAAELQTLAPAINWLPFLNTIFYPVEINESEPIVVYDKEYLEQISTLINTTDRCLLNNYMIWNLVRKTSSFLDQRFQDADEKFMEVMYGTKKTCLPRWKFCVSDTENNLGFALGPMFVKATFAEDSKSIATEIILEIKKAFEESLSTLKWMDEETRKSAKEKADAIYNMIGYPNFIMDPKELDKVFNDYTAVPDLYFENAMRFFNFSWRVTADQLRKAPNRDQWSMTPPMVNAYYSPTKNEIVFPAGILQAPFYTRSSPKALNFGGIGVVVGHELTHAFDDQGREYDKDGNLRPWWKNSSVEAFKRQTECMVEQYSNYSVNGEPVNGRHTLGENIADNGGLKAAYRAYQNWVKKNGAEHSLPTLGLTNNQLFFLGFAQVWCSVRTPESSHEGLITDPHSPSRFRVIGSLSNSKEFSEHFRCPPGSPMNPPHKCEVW
Method: as §1

ACE = biological target: T3, ACE (Homo sapiens, UniProt P12821); assay: Purified peptidase assay, ACE; type: biochemical
T3 construct: purchased R&D Systems (Minneapolis, MN)
Method: as §1

NEP = biological target: T4, NEP (Homo sapiens, UniProt P08473); assay: Purified peptidase assay, NEP; type: biochemical
T4 construct: purchased R&D Systems (Minneapolis, MN)
Method: as §1

[1] = biological target: T5, puromycin-sensitive aminopeptidase (Homo sapiens, UniProt P55786); assay: Purified peptidase assay, PSA; type: biochemical
T5 construct: purchased R&D Systems (Minneapolis, MN)
Method: as §1

ECE-2 = biological target: T6, ECE-2 (Homo sapiens, UniProt P0DPD6); assay: Purified peptidase assay, ECE-2; type: biochemical
T6 construct: purchased R&D Systems (Minneapolis, MN)
T6 sequence (P0DPD6 1-811): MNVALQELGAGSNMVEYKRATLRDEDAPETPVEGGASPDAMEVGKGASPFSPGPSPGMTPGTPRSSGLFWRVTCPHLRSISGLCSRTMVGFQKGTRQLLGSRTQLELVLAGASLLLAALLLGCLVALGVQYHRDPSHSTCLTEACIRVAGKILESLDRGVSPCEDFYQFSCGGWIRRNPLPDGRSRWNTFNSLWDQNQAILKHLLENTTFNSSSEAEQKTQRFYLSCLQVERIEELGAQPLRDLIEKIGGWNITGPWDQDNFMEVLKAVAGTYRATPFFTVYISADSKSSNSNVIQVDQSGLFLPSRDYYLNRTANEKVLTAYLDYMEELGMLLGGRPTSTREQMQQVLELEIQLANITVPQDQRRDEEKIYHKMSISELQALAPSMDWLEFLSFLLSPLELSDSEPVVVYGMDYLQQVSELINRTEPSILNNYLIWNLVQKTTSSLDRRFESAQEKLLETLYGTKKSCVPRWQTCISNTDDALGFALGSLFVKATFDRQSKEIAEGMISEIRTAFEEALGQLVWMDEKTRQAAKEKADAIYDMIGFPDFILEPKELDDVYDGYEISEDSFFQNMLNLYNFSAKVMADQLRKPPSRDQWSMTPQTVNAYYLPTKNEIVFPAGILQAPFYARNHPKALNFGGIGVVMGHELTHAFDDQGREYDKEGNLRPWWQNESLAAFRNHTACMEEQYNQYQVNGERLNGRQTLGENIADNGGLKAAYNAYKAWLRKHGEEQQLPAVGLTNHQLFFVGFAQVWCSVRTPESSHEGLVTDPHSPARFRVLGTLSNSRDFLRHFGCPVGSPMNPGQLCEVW
Method: as §1

IDE = biological target: T7, IDE (Homo sapiens, UniProt P14735); assay: Purified peptidase assay, IDE; type: biochemical
T7 construct: purchased R&D Systems (Minneapolis, MN)
T7 sequence (P14735 1-1019): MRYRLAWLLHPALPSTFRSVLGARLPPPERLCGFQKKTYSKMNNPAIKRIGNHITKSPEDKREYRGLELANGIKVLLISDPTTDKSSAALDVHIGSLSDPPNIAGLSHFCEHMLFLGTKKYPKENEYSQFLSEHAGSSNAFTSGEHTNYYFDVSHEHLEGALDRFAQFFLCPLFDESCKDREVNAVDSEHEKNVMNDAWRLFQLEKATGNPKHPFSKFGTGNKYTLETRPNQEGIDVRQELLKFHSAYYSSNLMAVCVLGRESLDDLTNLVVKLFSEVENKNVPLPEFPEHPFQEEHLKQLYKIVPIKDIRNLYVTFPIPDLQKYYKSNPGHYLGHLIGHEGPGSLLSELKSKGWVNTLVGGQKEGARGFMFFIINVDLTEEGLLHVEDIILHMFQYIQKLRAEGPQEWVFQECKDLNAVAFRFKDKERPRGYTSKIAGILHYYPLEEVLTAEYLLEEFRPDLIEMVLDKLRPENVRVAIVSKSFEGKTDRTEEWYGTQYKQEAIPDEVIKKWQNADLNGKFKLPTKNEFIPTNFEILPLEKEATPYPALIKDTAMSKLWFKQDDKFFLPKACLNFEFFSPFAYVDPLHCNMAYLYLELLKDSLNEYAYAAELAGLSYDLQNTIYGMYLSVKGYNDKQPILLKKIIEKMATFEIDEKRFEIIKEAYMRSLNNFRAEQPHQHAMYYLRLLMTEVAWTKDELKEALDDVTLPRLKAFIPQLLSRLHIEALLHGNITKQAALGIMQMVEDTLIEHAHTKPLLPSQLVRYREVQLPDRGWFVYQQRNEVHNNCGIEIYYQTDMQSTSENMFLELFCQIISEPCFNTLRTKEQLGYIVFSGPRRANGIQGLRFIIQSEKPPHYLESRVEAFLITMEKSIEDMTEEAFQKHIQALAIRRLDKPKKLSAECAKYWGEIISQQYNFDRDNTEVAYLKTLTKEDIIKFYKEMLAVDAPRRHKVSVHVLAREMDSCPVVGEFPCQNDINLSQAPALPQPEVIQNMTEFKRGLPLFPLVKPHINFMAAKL
Method: as §1

T3 sequence (P12821 30-1306): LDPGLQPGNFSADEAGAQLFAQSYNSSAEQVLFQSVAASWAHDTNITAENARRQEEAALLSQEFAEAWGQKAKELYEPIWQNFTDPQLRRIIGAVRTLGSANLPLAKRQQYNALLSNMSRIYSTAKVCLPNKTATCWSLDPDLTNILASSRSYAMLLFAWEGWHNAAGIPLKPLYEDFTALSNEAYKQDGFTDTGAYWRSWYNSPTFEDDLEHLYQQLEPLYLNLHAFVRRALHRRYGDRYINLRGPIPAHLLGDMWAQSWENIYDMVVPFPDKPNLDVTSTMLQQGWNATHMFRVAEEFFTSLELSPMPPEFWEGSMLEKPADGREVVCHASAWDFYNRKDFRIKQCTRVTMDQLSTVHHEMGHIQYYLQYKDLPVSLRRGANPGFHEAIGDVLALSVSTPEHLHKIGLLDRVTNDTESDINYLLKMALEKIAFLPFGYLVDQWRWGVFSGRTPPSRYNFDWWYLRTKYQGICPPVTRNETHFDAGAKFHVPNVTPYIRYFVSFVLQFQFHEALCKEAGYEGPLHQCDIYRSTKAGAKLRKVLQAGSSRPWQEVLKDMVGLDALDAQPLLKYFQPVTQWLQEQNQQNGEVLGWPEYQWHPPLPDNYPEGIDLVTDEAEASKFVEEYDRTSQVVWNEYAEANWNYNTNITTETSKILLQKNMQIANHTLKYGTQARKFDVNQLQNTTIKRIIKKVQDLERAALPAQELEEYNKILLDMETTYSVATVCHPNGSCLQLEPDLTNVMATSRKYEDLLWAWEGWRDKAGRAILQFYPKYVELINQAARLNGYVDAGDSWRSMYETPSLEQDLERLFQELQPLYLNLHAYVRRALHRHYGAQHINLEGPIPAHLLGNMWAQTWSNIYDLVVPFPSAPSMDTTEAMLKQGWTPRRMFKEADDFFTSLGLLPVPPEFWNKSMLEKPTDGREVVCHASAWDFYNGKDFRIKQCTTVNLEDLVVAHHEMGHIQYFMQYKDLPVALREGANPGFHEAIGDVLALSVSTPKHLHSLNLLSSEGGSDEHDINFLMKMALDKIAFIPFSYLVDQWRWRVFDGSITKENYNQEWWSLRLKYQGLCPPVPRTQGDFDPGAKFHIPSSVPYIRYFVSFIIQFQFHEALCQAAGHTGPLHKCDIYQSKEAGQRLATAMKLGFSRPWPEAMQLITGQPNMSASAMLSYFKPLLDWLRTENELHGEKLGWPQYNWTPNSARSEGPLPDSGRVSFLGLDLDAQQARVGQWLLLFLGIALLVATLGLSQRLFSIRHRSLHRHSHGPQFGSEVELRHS
T4 sequence (P08473 whole entry): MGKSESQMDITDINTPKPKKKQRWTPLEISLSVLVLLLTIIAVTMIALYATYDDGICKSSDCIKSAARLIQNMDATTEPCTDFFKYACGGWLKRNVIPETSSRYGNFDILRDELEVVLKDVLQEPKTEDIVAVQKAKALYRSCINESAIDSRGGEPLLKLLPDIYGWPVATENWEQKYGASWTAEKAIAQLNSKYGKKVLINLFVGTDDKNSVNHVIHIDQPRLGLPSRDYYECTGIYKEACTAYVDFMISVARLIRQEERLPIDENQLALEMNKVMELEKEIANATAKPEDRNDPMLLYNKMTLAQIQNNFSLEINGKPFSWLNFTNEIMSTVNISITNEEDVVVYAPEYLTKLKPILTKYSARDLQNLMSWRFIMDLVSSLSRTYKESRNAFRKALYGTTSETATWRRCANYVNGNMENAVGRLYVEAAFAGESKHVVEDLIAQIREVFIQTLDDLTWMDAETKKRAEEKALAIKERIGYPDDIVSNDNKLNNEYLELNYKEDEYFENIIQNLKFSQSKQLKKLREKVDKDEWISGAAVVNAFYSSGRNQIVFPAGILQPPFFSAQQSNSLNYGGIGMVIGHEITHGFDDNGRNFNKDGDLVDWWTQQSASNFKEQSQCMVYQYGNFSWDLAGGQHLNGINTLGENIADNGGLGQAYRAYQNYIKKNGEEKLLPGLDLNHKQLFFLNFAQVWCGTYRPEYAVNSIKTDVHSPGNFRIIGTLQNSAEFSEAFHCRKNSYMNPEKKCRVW
T1 sequence (P15144 whole entry): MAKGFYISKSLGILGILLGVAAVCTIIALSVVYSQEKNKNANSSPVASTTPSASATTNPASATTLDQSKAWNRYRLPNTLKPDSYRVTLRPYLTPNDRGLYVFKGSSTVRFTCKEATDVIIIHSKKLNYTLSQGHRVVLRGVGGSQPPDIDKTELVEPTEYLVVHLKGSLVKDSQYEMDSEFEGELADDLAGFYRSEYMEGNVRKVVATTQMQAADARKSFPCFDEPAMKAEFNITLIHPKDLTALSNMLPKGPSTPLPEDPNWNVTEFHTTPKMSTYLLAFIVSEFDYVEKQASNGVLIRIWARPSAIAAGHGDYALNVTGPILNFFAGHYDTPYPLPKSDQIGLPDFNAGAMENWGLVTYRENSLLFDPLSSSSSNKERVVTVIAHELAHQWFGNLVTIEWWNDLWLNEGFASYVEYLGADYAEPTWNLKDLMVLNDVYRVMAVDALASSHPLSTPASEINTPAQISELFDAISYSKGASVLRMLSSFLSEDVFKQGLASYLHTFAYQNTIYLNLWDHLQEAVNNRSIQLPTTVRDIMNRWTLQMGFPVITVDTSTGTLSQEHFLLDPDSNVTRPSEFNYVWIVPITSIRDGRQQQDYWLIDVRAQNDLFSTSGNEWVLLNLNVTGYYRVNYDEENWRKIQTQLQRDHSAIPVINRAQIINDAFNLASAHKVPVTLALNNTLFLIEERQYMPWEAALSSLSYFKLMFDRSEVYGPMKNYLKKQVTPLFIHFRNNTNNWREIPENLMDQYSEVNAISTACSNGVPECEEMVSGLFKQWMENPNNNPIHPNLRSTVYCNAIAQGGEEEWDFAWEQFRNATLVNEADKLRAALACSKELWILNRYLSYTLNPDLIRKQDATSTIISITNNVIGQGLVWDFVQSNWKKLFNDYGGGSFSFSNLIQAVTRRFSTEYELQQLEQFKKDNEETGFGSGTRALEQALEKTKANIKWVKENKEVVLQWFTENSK
T5 sequence (P55786 whole entry): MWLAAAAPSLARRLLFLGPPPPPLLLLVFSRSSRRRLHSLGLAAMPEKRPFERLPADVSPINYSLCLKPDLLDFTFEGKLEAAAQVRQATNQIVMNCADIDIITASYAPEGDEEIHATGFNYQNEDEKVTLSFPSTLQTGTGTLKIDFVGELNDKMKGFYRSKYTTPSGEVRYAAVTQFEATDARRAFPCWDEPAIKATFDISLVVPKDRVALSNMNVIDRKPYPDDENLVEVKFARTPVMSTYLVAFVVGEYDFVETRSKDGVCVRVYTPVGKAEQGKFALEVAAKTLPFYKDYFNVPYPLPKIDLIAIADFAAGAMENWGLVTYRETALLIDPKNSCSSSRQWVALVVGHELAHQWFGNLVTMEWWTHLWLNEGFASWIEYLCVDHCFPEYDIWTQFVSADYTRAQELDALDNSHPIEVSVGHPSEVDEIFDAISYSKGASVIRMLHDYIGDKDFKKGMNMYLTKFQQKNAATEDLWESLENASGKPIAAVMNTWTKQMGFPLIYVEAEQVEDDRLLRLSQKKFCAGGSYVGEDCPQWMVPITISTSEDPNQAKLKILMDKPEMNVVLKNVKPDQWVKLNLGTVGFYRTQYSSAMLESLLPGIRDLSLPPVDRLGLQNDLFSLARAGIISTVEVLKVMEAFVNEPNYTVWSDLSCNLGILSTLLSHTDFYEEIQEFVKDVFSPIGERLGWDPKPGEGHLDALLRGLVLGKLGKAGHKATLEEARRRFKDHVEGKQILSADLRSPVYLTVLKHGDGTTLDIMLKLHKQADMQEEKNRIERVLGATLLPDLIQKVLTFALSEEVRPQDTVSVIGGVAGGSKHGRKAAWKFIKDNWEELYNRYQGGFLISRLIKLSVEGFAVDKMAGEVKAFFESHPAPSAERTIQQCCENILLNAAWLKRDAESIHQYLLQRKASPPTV

CC1(C)CCC[C@H](NC(=O)[C@@H](S)Cc2ccccc2)C(=O)N1CC(=O)O [Gemopatrilat]
IC50 (aminopeptidase N): 18 µM
IC50 (ECE-1): 12 µM
IC50 (ACE): 0.23 µM
IC50 (NEP): 0.06 µM
IC50 [1]: 18 µM
IC50 (ECE-2): 77 µM
IC50 (IDE): > 100 µM

O=C(N[C@H]1CCS[C@H]2CCC[C@@H](C(=O)O)N2C1=O)[C@@H](S)Cc1ccccc1 [Omapatrilat]
IC50 (aminopeptidase N): 28 µM
IC50 (ECE-1): 21 µM
IC50 (ACE): 0.19 µM
IC50 (NEP): 0.04 µM
IC50 [1]: > 100 µM
IC50 (ECE-2): 86 µM
IC50 (IDE): > 100 µM
